Here are results for 2 molecules from patent US20080293691A1, “Treatment Method” (SMITHKLINE BEECHAM CORPORATION, priority 2005, published 2008).

Experiment [1] has as its system choroidal neovascularization (CNV). The experiment in a line: Prevention model for CNV (treatment begun before laser-induced retinal injury in mice). Conditions: oral twice daily from one day before retinal burning, 100 mg/kg Example 1, 45 mg/kg Example 3, or both, read fourteen days after burning, FIG. 2. It is filed as in vivo. On the procedure:
See the Examples section for additional information.
(§1) Mice were anesthetized and the pupils were dilated. Burns of krypton laser photocoagulation were delivered to the retina. Administration of the compound described in Example 1 was initiated seven days after the laser-induced injury. Oral doses of either the vehicle alone or vehicle containing the compound of formula (I) (designated as VEGF R in FIG. 1) at a dose or 4 mg/kg, 20 mg/kg, or 100 mg/kg were administered twice daily for seven days. After seven day of treatment, the mice were perfused with fluorescein-labeled dextran, and the area of choroidal neovascularization was quantitated.
In this experiment, the compound described in Example 1 (Designated as VEGF R in FIG. 2), Example 3 (designated as vitronectin in FIG. 2), or a combination of the compounds described in Example 1 and Example 3 (designated as “both” in FIG. 2) were administered to each mouse beginning one day before retinal burning was performed according to the methods described in Example 4. The compounds were administered orally twice daily at a dosage of 100 mg/kg for the compound of Example 1 or 45 mg/kg for the compound of Example 3. Fourteen days after the retinal burning, the CNV area was quantitated as described above.

The test system is the same in experiment [2]. The experiment in a line: Regression model for CNV (laser-induced choroidal neovascularization in mice). In kind it is in vivo. Particulars: oral 4, 20 or 100 mg/kg twice daily for seven days, started seven days after laser-induced injury, compared with vehicle/untreated.
Excerpt: In this regression model, CNV was induced in mice by laser burns on the posterior pole of the retina. Seven days after the laser-induced injury, the mice began a regime in which they were given either vehicle alone or 5-[[4-[(2,3-Dimethyl-2H-indazol-6-yl)methylamino]-2-pyrimidinyl]amino]-2-methylbenzenesulfonamide at the indicated doses. Seven days after this regime was initiated, the size of the CNV lesions was quantitated. See the Examples section for additional information.
as §1

As to `O=C(O)C[C@@H]1Cc2ccc(OCCCNc3ccccn3)cc2CN(CC(F)(F)F)C1=O` [Example 3, (S)-3-oxo-8-[3-(pyridin-2-ylamino)-1-propyloxy]-2-(2,2,2-trifluoroethyl)-2,3,4,5-tetrahydro-1H-2-benzazepine-4-acetic acid], in experiment [1], the “CNV area (size of choroidal neovascular lesions)” value is “a decrease in size of the resulting choroidal neovascular lesions”.

With `Cc1ccc(Nc2nccc(N(C)c3ccc4c(C)n(C)nc4c3)n2)cc1S(N)(=O)=O` [pazopanib, 5-({4-[(2,3-dimethyl-2H-indazol-6-yl)(methyl)amino]pyrimidin-2-yl}amino)-2-methylbenzenesulfonamide], the “area of choroidal neovascularization (size of CNV lesions)” value in experiment [2] (FIG. 1) is “a decrease in the size of the resulting choroidal neovascular lesions”; in experiment [2] (FIG. 1, listed as Pazopanib) it was “decreased the CNV area in a dose-specific manner”. Moreover, the “CNV area (size of choroidal neovascular lesions)” value in experiment [1] was “a decrease in size of the resulting choroidal neovascular lesions”.
